{
  "source": "paper PMC9508239",
  "about": "(Nature Communications, 2022)",
  "key": {"IR [1]": {"system": "IR", "assay": "Insulin signaling in vivo, white adipose tissue (WAT)", "details": "mouse epididymal WAT, vs vehicle", "procedure": "(§1) The cells were incubated with the lysis buffer B [50 mM Hepes pH 7.4, 150 mM NaCl, 10% Glycerol, 1% Triton X-100, 1 mM EDTA, 100 mM sodium fluoride, 2 mM sodium orthovanadate, 20 mM sodium pyrophosphate, 0.5 mM dithiothreitol (DTT), 2 mM phenylmethylsulfonyl fluoride (PMSF)] supplemented with cOmplete Protease Inhibitor Cocktail (Roche), PhosSTOP (Sigma), and 25 U/ml turbo nuclease (Accelagen) on ice for 1 h. After centrifuging at 20,817×g at 4 °C for 10 min, the concentrations of cell lysate were measured using Micro BCA Protein Assay Kit (Thermo Scientific). About 50–60 μg total proteins were analyzed by SDS-PAGE and quantitative Western blotting. […] For quantitative western blots, anti-rabbit immunoglobulin G (IgG) (H + L) (WB, 1:5000; Dylight 800 conjugates, Cat. #5151) and anti-mouse IgG (H + L) (WB, 1:5000; Dylight 680 conjugates, Cat. #5470) (Cell Signaling) were used as secondary antibodies. […]\nTwo to three months old male mice were fasted overnight. […] After centrifuging at 20,817×g at 4 °C for 30 min, the concentrations of cell lysate were measured using Micro BCA Protein Assay Kit (Thermo Scientific). The lysates were then analyzed by quantitative western blotting."}, "IR F96A": {"system": "IR F96A", "assay": "Auto-phosphorylation of IR in 293FT cells expressing IR F96A", "type": "cell-based, human", "details": "10 nM, 10 min", "procedure": "(§2) For the activation assay, the short isoform of human IR in pCS2-MYC was used as described previously[20],[49]. Plasmid transfections into 293FT cells were performed with Lipofectamin^TM 2000 (Invitrogen).\nas §1"}, "IR [2]": {"system": "IR", "assay": "Functional IR levels in liver after treatment (Fig. S10e,f)", "type": "in vivo, mouse", "procedure": "as §1\nFor the oral glucose tolerance test, mice were fasted for 6 h and their blood glucose levels (T = 0) were measured with tail bleeding using a glucometer (AlphaTRAK). […] Blood glucose levels were measured at the indicated time points after glucose administration. […]"}, "IR E697A": {"system": "IR E697A", "assay": "Auto-phosphorylation of IR in 293FT cells expressing IR E697A", "type": "cell-based, human", "procedure": "as §2, §1"}, "IR-D707A": {"system": "IR-D707A", "assay": "IR signaling (pY IR, pAKT, pERK) in IR-D707A MEFs", "type": "cell-based, mouse", "procedure": "IR^F/F mice (Jackson #006955[71]) were crossed with CAG-CRE/ERT mice (Jackson #004682) to generate IR^F/F; CRE-ERT mice. The IR^F/F; CRE-ERT mice were backcrossed nine generations to C57BL/6 (Jackson #000664). The MEFs from IR^F/F; CRE-ERT mice were isolated as described earlier with some modifications. E14.5 embryos were minced with sterile scalpels and incubated with 0.25% trypsin-EDTA for 10 min at 37 °C and a 5% CO2 incubator. Fresh 0.25% trypsin-EDTA was added. After 10 min incubation, cells were put into fresh DMEM containing supplemented 10% (v/v) FBS, 2 mM L-glutamine, 55 μM β-mercaptoethanol, and 1% penicillin/streptomycin, and then centrifuged at 290×g for 5 min. After the supernatant was removed, the cells were resuspended in the DMEM and incubated at 37 °C and 5% CO2 incubator. The medium was changed the next day to remove debris and floating cells.\nViral supernatants were collected at 2 days and 3 days after transfection, concentrated with a concentrator, and added to IR^F/F; CRE-ERT MEFs with 4 μg/ml of polybrene. Cells were selected with 2 μg/ml of puromycin 2 days after infection.\nas §2\nThe cells were incubated with the lysis buffer B [50 mM Hepes pH 7.4, 150 mM NaCl, 10% Glycerol, 1% Triton X-100, 1 mM EDTA, 100 mM sodium fluoride, 2 mM sodium orthovanadate, 20 mM sodium pyrophosphate, 0.5 mM dithiothreitol (DTT), 2 mM phenylmethylsulfonyl fluoride (PMSF)] supplemented with cOmplete Protease Inhibitor Cocktail (Roche), PhosSTOP (Sigma), and 25 U/ml turbo nuclease (Accelagen) on ice for 1 h. After centrifuging at 20,817×g at 4 °C for 10 min, the concentrations of cell lysate were measured using Micro BCA Protein Assay Kit (Thermo Scientific). About 50–60 μg total proteins were analyzed by SDS-PAGE and quantitative Western blotting. The following antibodies were purchased from commercial sources: Anti-IR-pY1150/1151 (WB, 1:1000; 19H6; labeled as pY IR, Cat. #3024), anti-AKT (WB, 1:1000; 40D4, Cat. #2920), anti-pS473 AKT (WB, 1:1000; D9E, Cat. #4060), anti-ERK1/2 (WB, 1:1000; L34F12, Cat. #4696), anti-pERK1/2 (WB, […]; 197G2, Cat. #4377), anti-IRS1-pS616 (WB, 1:1000; C15H5, Cell Signaling, Cat. #3203); anti-IRS1 (WB, 1:1000; A301-158A, Bethyl Laboratory); anti-IR (WB, 1:500, CT-3, Santa Cruz; labeled as IR for primary hepatocytes and MEFs, Cat. #sc-57342); anti-IR (WB, 1:1000; EPR23566-103; labeled as IR for Fig. S10, ab278100, Abcam); anti-Myc (WB, 1:2000; 9E10, Cat. #11667149001, Roche; labeled as IR for 293FT cells). For quantitative western blots, anti-rabbit immunoglobulin G (IgG) (H + L) (WB, 1:5000; Dylight 800 conjugates, Cat. #5151) and anti-mouse IgG (H + L) (WB, 1:5000; Dylight 680 conjugates, Cat. #5470) (Cell Signaling) were used as secondary antibodies. The membranes were scanned with the Odyssey Infrared Imaging System (Li-COR, Lincoln, NE)."}, "IR D496K": {"system": "IR D496K", "assay": "Auto-phosphorylation of IR in 293FT cells expressing IR D496K", "type": "cell-based, human", "procedure": "as §2, §1"}, "blood glucose": {"system": "blood glucose", "assay": "Insulin tolerance test", "type": "in vivo, mouse", "details": "i.p.; Humulin 6 nmol/kg, S597, S20D, W6A, F27A 9 nmol/kg, N20 27 nmol/kg; male mice", "procedure": "Briefly, 2–3 months old male mice were fasted for 2 h and their blood glucose levels (T = 0) were measured with tail bleeding using a glucometer (AlphaTRAK). After then, mice were injected intraperitoneally with Humulin (6 nmol/kg body weight), S597 (9 nmol/kg), S597-S20D (9 nmol/kg), S597-W6A (9 nmol/kg), S597-F27A (9 nmol/kg), or S597-N20 (27 nmol/kg), and their blood glucose levels were measured at the indicated time points after injection."}},
  "data": [
    {"substance": "insulin: native IR ligand used as comparator; Humulin in the in vivo tests", "values": [
      {"measurement": "pAKT, WAT", "setting": "IR [1]", "result": "significantly increased pAKT levels"},
      {"measurement": "pERK, WAT", "setting": "IR [1]", "result": "neither insulin nor S597 had a statistically significant effect on pERK levels"},
      {"measurement": "IR activation", "setting": "IR F96A", "result": "defective insulin-dependent activation"},
      {"measurement": "IR downregulation", "setting": "IR [2]; 50U/kg, i.p., 3 consecutive days", "result": "not significantly downregulated"},
      {"measurement": "IR downregulation", "setting": "IR [2]; one hour after insulin 0.1U/kg or S597 0.15U/kg", "result": "not significantly downregulated"},
      {"measurement": "IR activation", "setting": "IR E697A", "result": "largely diminished IR activation by insulin"},
      {"measurement": "phosphorylation of AKT", "setting": "IR-D707A", "result": "greatly reduced"},
      {"measurement": "phosphorylation of ERK", "setting": "IR-D707A", "result": "greatly reduced"},
      {"measurement": "phosphorylation of IR", "setting": "IR-D707A", "result": "remarkedly reduced"},
      {"measurement": "pAKT", "setting": "IR-D707A; high concentration of insulin", "result": "significantly increased pAKT and pERK"},
      {"measurement": "pERK", "setting": "IR-D707A; high concentration of insulin", "result": "significantly increased pAKT and pERK"},
      {"measurement": "IR activation", "setting": "IR D496K", "result": "reduced insulin-dependent IR activation"},
      {"measurement": "blood glucose lowering", "setting": "blood glucose", "result": "significantly reduced"}
    ]}
  ]
}
